≈ marks a conversion by molar mass, not a printed value. Calls of active or inactive are those of the source. No cut-off for these calls is given here.
Assays:
Cell membrane [1] = experiment: Induction of outer membrane permeabilization in Escherichia coli KCTC 1682 assessed as increase in fluorescence intensity at 2 to 8 ug/ml by NPN staining based analysis; details: dose 2-8 µg/ml
Escherichia coli [2] = experiment: Antibacterial activity against Escherichia coli KCTC 1682 strain assessed as bacterial growth inhibition measured at 18 to 24 hrs by microdilution assay; format: functional; details: time 18-24 hrs
Pseudomonas aeruginosa [3] = experiment: Antibacterial activity against Pseudomonas aeruginosa KCTC 1637 strain assessed as bacterial growth inhibition measured at 18 to 24 hrs by microdilution assay; format: functional; details: time 18-24 hrs
Staphylococcus aureus [4] = experiment: Antibacterial activity against Staphylococcus aureus KCTC 1621 strain assessed as bacterial growth inhibition measured at 18 to 24 hrs by microdilution assay; format: functional; details: time 18-24 hrs
Escherichia coli [5] = experiment: Antibacterial activity against Escherichia coli KCTC 1682 strain assessed as bacterial growth inhibition measured at 18 to 24 hrs in presence of 150 mM NaCl by microdilution assay; format: functional; details: time 18-24 hrs
Escherichia coli [6] = experiment: Antibacterial activity against Escherichia coli KCTC 1682 strain assessed as bacterial growth inhibition measured at 18 to 24 hrs in presence of 6 uM NH4Cl by microdilution assay; format: functional; details: time 18-24 hrs
Staphylococcus aureus [7] = experiment: Antibacterial activity against Staphylococcus aureus KCTC 1621 strain assessed as bacterial growth inhibition measured at 18 to 24 hrs in presence of 150 mM NaCl by microdilution assay; format: functional; details: time 18-24 hrs
Staphylococcus aureus [8] = experiment: Antibacterial activity against Staphylococcus aureus KCTC 1621 strain assessed as bacterial growth inhibition measured at 18 to 24 hrs in presence of 6 uM NH4Cl by microdilution assay; format: functional; details: time 18-24 hrs
Staphylococcus aureus [9] = experiment: Antibacterial activity against Staphylococcus aureus KCTC 1621 strain assessed as bacterial growth inhibition measured at 18 to 24 hrs in presence of 1 mM MgCl2 by microdilution assay; format: functional; details: time 18-24 hrs
Staphylococcus aureus [10] = experiment: Antibacterial activity against Staphylococcus aureus KCTC 1621 strain assessed as bacterial growth inhibition measured at 18 to 24 hrs in presence of 4 uM FeCl3 by microdilution assay; format: functional; details: time 18-24 hrs
Staphylococcus aureus [11] = experiment: Antibacterial activity against methicillin-resistant Staphylococcus aureus CCARM 3089 strain assessed as bacterial growth inhibition measured at 18 to 24 hrs by microdilution assay; format: functional; details: time 18-24 hrs
Staphylococcus aureus [12] = experiment: Antibacterial activity against methicillin-resistant Staphylococcus aureus CCARM 3090 strain assessed as bacterial growth inhibition measured at 18 to 24 hrs by microdilution assay; format: functional; details: time 18-24 hrs
Escherichia coli [13] = experiment: Antibacterial activity against Escherichia coli KCTC 1682 strain assessed as bacterial growth inhibition measured after 6 hrs in presence of chymotrypsin by radial diffusion assay; format: functional, organism-based
Escherichia coli [14] = experiment: Antibacterial activity against Escherichia coli KCTC 1682 strain assessed as bacterial growth inhibition measured after 6 hrs in presence of pepsin by radial diffusion assay; format: functional, organism-based
Cell membrane [15] = experiment: Induction of cell membrane depolarization in Staphylococcus aureus assessed as fluorescence intensity at 2 to 16 times MIC by DiSC3(5) dye based fluorescence assay; format: subcellular
Cell membrane [16] = experiment: Induction of cell membrane depolarization in Staphylococcus aureus assessed as increase in fluorescence intensity at 2 times MIC by SYTOX green staining based analysis
Cell membrane [17] = experiment: Induction of inner membrane permeabilization in Escherichia coli ML-35 assessed as increase in […] at 2 times MIC by ONPG staining based analysis
DNA = experiment: Binding affinity to plasmid DNA (unknown origin) assessed as retardation of DNA migration at 4 to 8 ug/ml incubated for 1 hr by agarose gel electrophoresis method; format: nucleic-acid assay; details: dose 4-8 µg/ml
Pseudomonas aeruginosa [18] = experiment: Synergistic antibacterial activity against multidrug-resistant Pseudomonas aeruginosa CCARM 2095 strain assessed as bacterial growth inhibition by checkerboard assay; format: functional
Pseudomonas aeruginosa [19] = experiment: Synergistic antibacterial activity against multidrug-resistant Pseudomonas aeruginosa CCARM 2095 strain assessed as bacterial growth inhibition in presence of ciprofloxacin by checkerboard assay; format: functional
Pseudomonas aeruginosa [20] = experiment: Synergistic antibacterial activity against multidrug-resistant Pseudomonas aeruginosa CCARM 2095 strain assessed as bacterial growth inhibition in presence of oxacillin by checkerboard assay; format: functional
Pseudomonas aeruginosa [21] = experiment: Synergistic antibacterial activity against multidrug-resistant Pseudomonas aeruginosa CCARM 2095 strain assessed as chloramphenicol fractional inhibitory concentration by checkerboard assay; format: functional
Pseudomonas aeruginosa [22] = experiment: Synergistic antibacterial activity against multidrug-resistant Pseudomonas aeruginosa CCARM 2095 strain assessed as ciprofloxacin fractional inhibitory concentration in presence of ciprofloxacin by checkerboard assay; format: functional
Pseudomonas aeruginosa [23] = experiment: Synergistic antibacterial activity against multidrug-resistant Pseudomonas aeruginosa CCARM 2095 strain assessed as oxacillin fractional inhibitory concentration in presence of oxacillin by checkerboard assay; format: functional
Staphylococcus aureus [24] = experiment: Synergistic antibacterial activity against methicillin-resistant Staphylococcus aureus CCARM 3089 strain assessed as oxacillin MIC by checkerboard assay; format: functional
Staphylococcus aureus [25] = experiment: Antibacterial activity against methicillin-resistant Staphylococcus aureus CCARM 3089 strain assessed as bacterial growth inhibition by checkerboard assay; format: functional
Staphylococcus aureus [26] = experiment: Synergistic antibacterial activity against methicillin-resistant Staphylococcus aureus CCARM 3089 strain assessed as fractional inhibitory concentration in presence of oxacillin by checkerboard assay; format: functional
Staphylococcus aureus [27] = experiment: Additive antibacterial activity against multidrug-resistant Staphylococcus aureus CCARM 3089 strain assessed as oxacillin fractional inhibitory concentration by checkerboard assay; format: functional
Staphylococcus aureus [28] = experiment: Additive antibacterial activity against multidrug-resistant Staphylococcus aureus CCARM 3089 strain assessed as fractional inhibitory concentration index in presence of oxacillin by checkerboard assay; format: functional
Staphylococcus aureus [29] = experiment: Synergistic antibacterial activity against multidrug-resistant Staphylococcus aureus CCARM 3089 strain assessed as fractional inhibitory concentration index in presence of oxacillin by checkerboard assay; format: functional
Pseudomonas aeruginosa [30] = experiment: Antibiofilm activity against multidrug-resistant Pseudomonas aeruginosa assessed as inhibition of biofilm formation; format: functional
RAW264.7 [31] = experiment: Antiinflammatory activity in LPS-induced mouse RAW264.7 cells assessed as reduction in NO production at 5 ug/ml measured after 72 hrs by ELISA assay relative to control; format: functional
RAW264.7 [32] = experiment: Antiinflammatory activity in LPS-induced mouse RAW264.7 cells assessed as reduction in TNF alpha level at 20 ug/ml measured after 72 hrs by ELISA assay relative to control; format: functional
Lipopolysaccharide (LPS) [33] = experiment: Displacement of BODIPY-TR-cadaverine from Escherichia coli O111:B4 lipopolysaccharide assessed as increase in fluorescence at 5 ug/ml by fluorescence based assay relative to control; details: dose 5.0 µg/ml
Lipopolysaccharide (LPS) [34] = experiment: Binding affinity to Escherichia coli O111:B4 lipopolysaccharide assessed as suppression of FTIC labeled LPS binding to mouse RAW264.7 cells at 20 ug/ml pretreated LPS with cells for 1 hr followed by compound addition measured after 1 hr by flow cytometer assay (reference value: 48.12%); format: cell-based; details: dose 20.0 µg/ml
Pseudomonas aeruginosa [35] = experiment: Antibiofilm activity against multidrug-resistant Pseudomonas aeruginosa assessed as biofilm eradication; format: functional
Staphylococcus aureus [36] = experiment: Additive antibacterial activity against multidrug-resistant Staphylococcus aureus CCARM 3089 strain assessed as fractional inhibitory concentration index in presence of chloramphenicol by checkerboard assay; format: functional

Row | SMILES | Activity (Cell membrane [1]) | MIC (Escherichia coli [2]) [µM] | MIC (Pseudomonas aeruginosa [3]) [µM] | MIC (Staphylococcus aureus [4]) [µM] | MIC (Escherichia coli [5]) [µM] | MIC (Escherichia coli [6]) [µM] | MIC (Staphylococcus aureus [7]) [µM] | MIC (Staphylococcus aureus [8]) [µM] | MIC (Staphylococcus aureus [9]) [µM] | MIC (Staphylococcus aureus [10]) [µM] | MIC (Staphylococcus aureus [11]) [µM] | MIC (Staphylococcus aureus [12]) [µM] | Activity (Escherichia coli [13]) | Activity (Escherichia coli [14]) | Activity (Cell membrane [15]) | Activity (Cell membrane [16]) | Activity (Cell membrane [17]) | Activity (DNA) | MIC (Pseudomonas aeruginosa [18]) [µg/mL] | MIC (Pseudomonas aeruginosa [19]) [µg/mL] | further results
1 | NCCCN(CCCN)c1nc(NCc2ccccc2)nc(N2CC(Cc3ccccc3)N(c3nc(NCc4ccccc4)nc(N(CCCN)CCCN)n3)CC2Cc2ccccc2)n1 (centres undefined) | inactive | 5 (≈ 4.47 µg/mL) | 10 (≈ 8.93 µg/mL) | 2.5 (≈ 2.23 µg/mL) | 2.5 | 5 | 2.5 | 5 | 10 | 5 | 5 (≈ 4.47 µg/mL) | 2.8 (≈ 2.5 µg/mL) | Active | Active | inactive | inactive | inactive | Active | 16 | 4 | MIC (Pseudomonas aeruginosa [20]): 4 µg/mL; FIC (Pseudomonas aeruginosa [21]): 0.125; FIC (Pseudomonas aeruginosa [22]): 0.25; FIC (Pseudomonas aeruginosa [23]): 0.25; MIC (Staphylococcus aureus [24]): 128 µg/mL; MIC (Staphylococcus aureus [25]): 4 µg/mL; FIC (Staphylococcus aureus [26]): 0.25; FIC (Staphylococcus aureus [27]): 0.125; fractional inhibitory concentration index (FICI) (Staphylococcus aureus [28]): 0.375; fractional inhibitory concentration index (FICI) (Staphylococcus aureus [29]): 0.375; MBEC50 (Pseudomonas aeruginosa [30]): 10 µM; MBEC90 (Pseudomonas aeruginosa [30]): 39.8 µM; MBIC (Pseudomonas aeruginosa [30]): 10 µM; MBIC50 (Pseudomonas aeruginosa [30]): 5 µM; inhibition at 5 µg/mL (RAW264.7 [31]): 75.7%; inhibition at 20 µg/mL (RAW264.7 [32]): 95.4%; Activity (Lipopolysaccharide (LPS) [33]): > 50%; Flu intensity (Lipopolysaccharide (LPS) [34]): 27.4%; MBEC50 (Pseudomonas aeruginosa [35]): 10 µM; MBEC90 (Pseudomonas aeruginosa [35]): 39.8 µM
2 | NCCCCNc1nc(NCCCCN)nc(N2CC(Cc3ccccc3)N(c3nc(NCCCCN)nc(NCCCCN)n3)CC2Cc2ccccc2)n1 (centres undefined) | inactive | 10.4 (≈ 8 µg/mL) | 5.2 (≈ 4 µg/mL) | 5.2 (≈ 4 µg/mL) | 10.4 | 10.4 | 5.2 | 5.2 | 5.2 | 20.8 | 5.2 (≈ 4 µg/mL) | 5.2 (≈ 4 µg/mL) | Active | Active | inactive | inactive | inactive | Active | 32 | 8 | MIC (Pseudomonas aeruginosa [20]): 8 µg/mL; FIC (Pseudomonas aeruginosa [21]): 0.125; FIC (Pseudomonas aeruginosa [22]): 0.25; FIC (Pseudomonas aeruginosa [23]): 0.25; MIC (Staphylococcus aureus [24]): 256 µg/mL; MIC (Staphylococcus aureus [25]): 4 µg/mL; FIC (Staphylococcus aureus [26]): 0.25; FIC (Staphylococcus aureus [27]): 0.25; fractional inhibitory concentration index (FICI) (Staphylococcus aureus [36]): 0.625; fractional inhibitory concentration index (FICI) (Staphylococcus aureus [28]): 0.5; fractional inhibitory concentration index (FICI) (Staphylococcus aureus [29]): 0.5; inhibition at 5 µg/mL (RAW264.7 [31]): 72.6%; inhibition at 20 µg/mL (RAW264.7 [32]): 97.2%; Activity (Lipopolysaccharide (LPS) [33]): > 50%; Flu intensity (Lipopolysaccharide (LPS) [34]): 21.2%
3 | NCCN(CCN)c1nc(NCc2ccccc2)nc(N2CC(Cc3ccccc3)N(c3nc(NCc4ccccc4)nc(N(CCN)CCN)n3)CC2Cc2ccccc2)n1 (centres undefined) | inactive | 5.4 (≈ 4.52 µg/mL) | 5.4 (≈ 4.52 µg/mL) | 5.4 (≈ 4.52 µg/mL) | 5.4 | 5.4 | 5.4 | 5.4 | 5.4 | 5.4 | 5.4 (≈ 4.52 µg/mL) | 5.4 (≈ 4.52 µg/mL) | Active | Active | inactive | inactive | inactive | Active | 16 | 2 | MIC (Pseudomonas aeruginosa [20]): 4 µg/mL; FIC (Pseudomonas aeruginosa [21]): 0.25; FIC (Pseudomonas aeruginosa [22]): 0.125; FIC (Pseudomonas aeruginosa [23]): 0.25; MIC (Staphylococcus aureus [24]): 256 µg/mL; MIC (Staphylococcus aureus [25]): 4 µg/mL; FIC (Staphylococcus aureus [26]): 0.25; FIC (Staphylococcus aureus [27]): 0.25; fractional inhibitory concentration index (FICI) (Staphylococcus aureus [28]): 0.5; fractional inhibitory concentration index (FICI) (Staphylococcus aureus [29]): 0.5; MBEC50 (Pseudomonas aeruginosa [30]): 10.4 µM; MBEC90 (Pseudomonas aeruginosa [30]): 10.4 µM; MBIC (Pseudomonas aeruginosa [30]): 5.2 µM; MBIC50 (Pseudomonas aeruginosa [30]): 1.3 µM; inhibition at 20 µg/mL (RAW264.7 [32]): 95.6%; Activity (Lipopolysaccharide (LPS) [33]): 75%; Flu intensity (Lipopolysaccharide (LPS) [34]): 16.4%; MBEC50 (Pseudomonas aeruginosa [35]): 10.4 µM; MBEC90 (Pseudomonas aeruginosa [35]): 10.4 µM

Source: ChEMBL document CHEMBL5331051, “Cationic, amphipathic small molecules based on a triazine-piperazine-triazine scaffold as a new class of antimicrobial agents” (Eur J Med Chem, 2022)
